The text below walks through data of patent US20240246942A1, “KINASE INHIBITORS FOR THE TREATMENT OF NEURODEGENERATIVE DISEASES” (priority 2020, published 2024).

Experiment in all cases: biochemical
Assay [1] has as its target T1, panel of 374 wild-type kinases (Homo sapiens, UniProt Q9BUB5).
T1 construct: purchased Reaction Biology Corporation
The settings on record: read-out: % Enzyme Activity (relative to DMSO controls), MNK1.

Assay [2] deals with T2, panel of 374 wild-type kinases (Homo sapiens, UniProt Q13163).
T2 construct: purchased Reaction Biology Corporation
T2 sequence (Q13163 1-448): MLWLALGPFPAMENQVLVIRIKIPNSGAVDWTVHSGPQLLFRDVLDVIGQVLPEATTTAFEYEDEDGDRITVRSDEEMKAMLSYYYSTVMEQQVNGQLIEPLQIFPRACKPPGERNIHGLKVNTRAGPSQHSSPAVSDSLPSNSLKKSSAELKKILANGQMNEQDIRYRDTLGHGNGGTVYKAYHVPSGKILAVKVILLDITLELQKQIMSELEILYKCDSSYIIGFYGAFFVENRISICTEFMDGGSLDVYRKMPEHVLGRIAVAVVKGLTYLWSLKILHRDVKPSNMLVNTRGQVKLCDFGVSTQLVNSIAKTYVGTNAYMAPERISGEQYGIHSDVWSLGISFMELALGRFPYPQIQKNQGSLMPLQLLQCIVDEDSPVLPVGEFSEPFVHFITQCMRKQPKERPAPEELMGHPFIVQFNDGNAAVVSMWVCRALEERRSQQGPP
The conditions noted are these: read-out: % Enzyme Activity (relative to DMSO controls), MEK5.

Assay [3] has as its target T3, panel of 374 wild-type kinases (Homo sapiens, UniProt P45983).
T3 construct: purchased Reaction Biology Corporation
The conditions noted are these: JNK1, read-out: % Enzyme Activity (relative to DMSO controls).

In assay [4] the target is T4, panel of 374 wild-type kinases (Homo sapiens, UniProt P41743).
T4 construct: purchased Reaction Biology Corporation
T4 sequence (P41743 1-596): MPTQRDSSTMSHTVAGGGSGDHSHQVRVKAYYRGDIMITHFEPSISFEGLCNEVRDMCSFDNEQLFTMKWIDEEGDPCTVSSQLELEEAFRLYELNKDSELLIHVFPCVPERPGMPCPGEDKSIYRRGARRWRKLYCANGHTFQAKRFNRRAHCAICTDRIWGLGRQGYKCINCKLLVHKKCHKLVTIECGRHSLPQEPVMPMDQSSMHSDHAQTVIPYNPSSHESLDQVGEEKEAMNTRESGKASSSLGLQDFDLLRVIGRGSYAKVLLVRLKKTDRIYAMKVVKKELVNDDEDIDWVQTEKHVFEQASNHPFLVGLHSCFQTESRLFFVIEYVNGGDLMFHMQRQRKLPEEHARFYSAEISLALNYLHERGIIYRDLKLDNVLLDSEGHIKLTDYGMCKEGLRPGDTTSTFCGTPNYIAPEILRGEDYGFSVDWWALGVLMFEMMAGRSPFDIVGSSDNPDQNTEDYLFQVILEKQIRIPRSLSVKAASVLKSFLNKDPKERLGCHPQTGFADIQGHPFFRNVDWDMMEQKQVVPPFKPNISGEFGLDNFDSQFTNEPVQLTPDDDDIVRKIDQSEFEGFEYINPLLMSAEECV
The conditions noted are these: read-out: % Enzyme Activity (relative to DMSO controls), kinase PKCiota.

For assay [5], the target named is T5, panel of 374 wild-type kinases (Homo sapiens, UniProt P32298).
T5 construct: purchased Reaction Biology Corporation
T5 sequence (P32298 whole entry): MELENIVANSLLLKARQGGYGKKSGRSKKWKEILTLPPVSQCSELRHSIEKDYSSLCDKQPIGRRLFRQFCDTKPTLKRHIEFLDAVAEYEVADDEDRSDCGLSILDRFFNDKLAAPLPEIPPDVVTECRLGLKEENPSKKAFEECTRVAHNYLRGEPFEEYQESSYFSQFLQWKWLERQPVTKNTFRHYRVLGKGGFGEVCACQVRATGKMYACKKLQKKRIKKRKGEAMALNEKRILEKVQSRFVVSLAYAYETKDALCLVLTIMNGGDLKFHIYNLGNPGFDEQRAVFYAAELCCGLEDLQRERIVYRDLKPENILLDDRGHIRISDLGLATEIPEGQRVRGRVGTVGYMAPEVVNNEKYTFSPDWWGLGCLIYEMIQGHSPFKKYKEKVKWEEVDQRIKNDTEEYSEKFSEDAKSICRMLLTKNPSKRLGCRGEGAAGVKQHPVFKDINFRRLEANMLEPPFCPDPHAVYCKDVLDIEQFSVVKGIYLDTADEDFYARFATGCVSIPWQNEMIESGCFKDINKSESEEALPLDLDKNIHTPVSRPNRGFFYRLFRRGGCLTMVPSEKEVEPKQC
The settings on record: read-out: % Enzyme Activity (relative to DMSO controls), GRK4.

Assay [6] has as its target T6, panel of 374 wild-type kinases (Homo sapiens, UniProt Q15139).
T6 construct: purchased Reaction Biology Corporation
T6 sequence (Q15139 1-912): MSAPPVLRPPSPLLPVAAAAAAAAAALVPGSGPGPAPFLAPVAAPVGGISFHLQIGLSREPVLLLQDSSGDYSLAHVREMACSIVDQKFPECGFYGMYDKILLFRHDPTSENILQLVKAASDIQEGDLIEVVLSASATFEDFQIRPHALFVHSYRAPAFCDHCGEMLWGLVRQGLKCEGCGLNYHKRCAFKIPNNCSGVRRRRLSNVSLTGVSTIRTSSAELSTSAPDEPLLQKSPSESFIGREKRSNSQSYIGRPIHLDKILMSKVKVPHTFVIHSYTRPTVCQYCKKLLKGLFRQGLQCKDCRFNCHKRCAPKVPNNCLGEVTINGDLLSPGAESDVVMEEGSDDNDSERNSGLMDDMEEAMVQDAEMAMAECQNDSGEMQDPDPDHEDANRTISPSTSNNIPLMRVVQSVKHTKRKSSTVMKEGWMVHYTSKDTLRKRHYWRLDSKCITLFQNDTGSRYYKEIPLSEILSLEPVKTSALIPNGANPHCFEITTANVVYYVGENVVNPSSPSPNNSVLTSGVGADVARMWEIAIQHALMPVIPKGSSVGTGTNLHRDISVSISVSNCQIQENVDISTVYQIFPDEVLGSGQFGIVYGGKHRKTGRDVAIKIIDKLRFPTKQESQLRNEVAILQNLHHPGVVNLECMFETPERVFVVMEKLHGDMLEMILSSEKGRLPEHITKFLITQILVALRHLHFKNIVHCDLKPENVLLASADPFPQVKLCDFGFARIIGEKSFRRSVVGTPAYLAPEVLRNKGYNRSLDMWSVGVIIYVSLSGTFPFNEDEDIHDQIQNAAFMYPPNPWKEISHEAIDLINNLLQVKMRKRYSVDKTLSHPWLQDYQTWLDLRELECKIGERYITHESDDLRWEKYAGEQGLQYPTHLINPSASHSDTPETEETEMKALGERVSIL
The conditions noted are these: read-out: % Enzyme Activity (relative to DMSO controls), kinase PKCmu/PRKD1.

T3 sequence (P45983 whole entry): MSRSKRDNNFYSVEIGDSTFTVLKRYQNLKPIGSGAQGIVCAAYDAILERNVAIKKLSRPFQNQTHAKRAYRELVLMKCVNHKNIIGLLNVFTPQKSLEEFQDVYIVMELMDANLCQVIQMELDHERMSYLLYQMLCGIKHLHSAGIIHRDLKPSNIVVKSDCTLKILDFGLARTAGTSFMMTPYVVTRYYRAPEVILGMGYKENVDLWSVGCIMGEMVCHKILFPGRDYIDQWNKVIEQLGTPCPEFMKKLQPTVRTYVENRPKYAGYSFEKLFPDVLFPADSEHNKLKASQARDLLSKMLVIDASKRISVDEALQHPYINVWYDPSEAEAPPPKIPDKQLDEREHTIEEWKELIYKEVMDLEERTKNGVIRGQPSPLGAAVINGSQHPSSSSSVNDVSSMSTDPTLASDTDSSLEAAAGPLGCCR
T1 sequence (Q9BUB5 whole entry): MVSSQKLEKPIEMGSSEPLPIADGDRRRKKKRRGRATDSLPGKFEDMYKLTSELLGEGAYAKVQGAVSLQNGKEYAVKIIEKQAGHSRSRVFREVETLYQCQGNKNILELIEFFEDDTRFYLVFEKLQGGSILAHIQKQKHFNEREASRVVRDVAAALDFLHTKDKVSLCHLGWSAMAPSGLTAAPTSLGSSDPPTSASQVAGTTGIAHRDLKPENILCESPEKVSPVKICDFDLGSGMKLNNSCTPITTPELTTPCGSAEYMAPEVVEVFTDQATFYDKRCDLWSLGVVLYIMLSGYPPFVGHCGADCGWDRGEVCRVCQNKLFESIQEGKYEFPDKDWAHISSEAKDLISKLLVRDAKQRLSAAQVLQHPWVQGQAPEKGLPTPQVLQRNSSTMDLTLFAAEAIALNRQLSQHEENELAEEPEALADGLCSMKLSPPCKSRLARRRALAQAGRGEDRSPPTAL

With `Cc1sc(C(=O)NC2COC2)cc1-n1cc(NC(=O)Nc2c(F)cccc2Cl)cn1` [Compound 27, 4-(4-(3-(2-chloro-6-fluorophenyl)ureido)-1H-pyrazol-1-yl)-5-methyl-N-(oxetan-3-yl)thiophene-2-carboxamide], the remaining activity at 10 µM in assay [1] (10 uM) was found to be 94.2%; in assay [2] (10 uM), 96.8%; in assay [3] (10 uM), 76.3%; in assay [4] (10 uM), 90.8%; in assay [5] (10 uM) it was 113%; in assay [6] (10 uM), 93.3%.

In the case of `O=C(Nc1cnn(-c2csc(C(=O)NC3COC3)c2)c1)Nc1c(F)cccc1Cl` [Compound 25, 4-(4-(3-(2-chloro-6-fluorophenyl)ureido)-1H-pyrazol-1-yl)-N-(oxetan-3-yl)thiophene-2-carboxamide], the remaining activity at 5 µM is 103% in assay [1]; 103% in assay [2]; 49.1% in assay [3]; 87.4% in assay [4]; 93.6% in assay [5]; 90.7% in assay [6].

For the compound `O=C(Nc1cnn(-c2csc(C(=O)NC3COC3)c2)c1)Nc1ccccc1Cl` [Compound 17, 4-(4-(3-(2-chlorophenyl)ureido)-1H-pyrazol-1-yl)-N-(oxetan-3-yl)thiophene-2-carboxamide], the remaining activity at 5 µM came out at 94.3% in assay [1]; 98.2% in assay [2]; 57.6% in assay [3]; 95.5% in assay [4]; 97% in assay [5]; 114% in assay [6].
